Reference: BigSolDB 2.1

C=C1CC[C@H](O)C/C1=C/C=C1\CCC[C@]2(C)[C@@H]([C@H](C)CCCC(C)C)CC[C@@H]12
solubility (mole fraction)
Conditions | in acetone | in acetonitrile | in ethanol | in ethyl acetate | in methanol | in n-propanol
248.2 K | 0.00611 | 7.61e-05 | 0.0532 | 0.0219 | 0.00204 | 0.0647
253.2 K | 0.00805 | 9.25e-05 | 0.0646 | 0.0287 | 0.00249 | 0.0873
258.2 K | 0.0106 | 0.000133 | 0.0796 | 0.0366 | 0.00337 | 0.111
263.2 K | 0.0143 | 0.00016 | 0.0965 | 0.0478 | 0.0046 | 0.136
268.2 K | 0.0192 | 0.000252 | 0.116 | 0.0639 | 0.00625 | 0.163
273.2 K | 0.028 | 0.000311 | 0.14 | 0.0883 | 0.00993 | 0.193
